Data: patent US8697643B2, “Method for controllably releasing a drug conjugate within subcutaneous tissue in response to the local concentration of an indicator” (priority 2005, dated 2014)

Columns and labels:
human salivary amylase = target: T1, human salivary amylase (Homo sapiens, UniProt P0DUB6); experiment: in vitro amylase digestion assay of insulin-glycogen (SDS-PAGE); type: in vitro ADME; conditions: SDS-PAGE after incubation with amylase
T1 construct: from tissue; host or cells: human saliva (whole, diluted in 1x PBS)
T1 sequence (P0DUB6 16-511): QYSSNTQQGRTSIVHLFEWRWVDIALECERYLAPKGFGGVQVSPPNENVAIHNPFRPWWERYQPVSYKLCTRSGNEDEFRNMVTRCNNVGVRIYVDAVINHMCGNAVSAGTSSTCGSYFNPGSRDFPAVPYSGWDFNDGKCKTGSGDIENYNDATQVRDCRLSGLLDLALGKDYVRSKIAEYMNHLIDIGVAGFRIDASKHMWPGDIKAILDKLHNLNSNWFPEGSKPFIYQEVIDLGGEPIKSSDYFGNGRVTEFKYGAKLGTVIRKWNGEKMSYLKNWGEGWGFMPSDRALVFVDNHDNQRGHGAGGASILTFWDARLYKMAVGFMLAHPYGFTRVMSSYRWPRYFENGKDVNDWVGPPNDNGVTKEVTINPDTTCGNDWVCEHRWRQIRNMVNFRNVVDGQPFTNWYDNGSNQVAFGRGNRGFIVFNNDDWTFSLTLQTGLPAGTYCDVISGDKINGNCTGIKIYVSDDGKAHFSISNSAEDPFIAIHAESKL
Experimental: As previously discussed, once an insulin-glycogen conjugate is released from an inventive glucose-responsive material, it is digested by amylases that breakdown the large molecular weight insulin-glycogen conjugate into low molecular weight conjugates in vivo. […] An in vitro amylase digestion assay was performed to qualify the proposed insulin-glycogen degradation mechanism. […] The saliva sample was serially diluted 1:2 in 1×PBS buffer to 1:512.90 μL aliquots of each of the 1:4, 1:16, 1:64, 1:128, 1:256, and 1:512 dilutions were added to pre-prepared microcentrifuge tubes containing 90 μL of undiluted insulin-glycogen. […] The gels were run in SDS running buffer for 45 minutes to an hour at a constant voltage of 150 V. Under these conditions, the amylase completely digested the insulin-glycogen conjugate into native MW insulin at the 1:16 dilution level as quantified by the relative band density of high MW conjugate to that of native MW insulin.
SDS-PAGE has confirmed that the insulin-glycogen conjugate is essentially free from unconjugated insulin (FIG. 5a). […] Serum was collected from the other catheter as a function of time and analyzed for fluorescence (fmax, Molecular Devices, Sunnyvale, Calif.) to determine glycogen absorption rate and insulin levels (RIA, Joslin Diabetes Center).

[1] = tested on: fasted normal rats (Male Sprague-Dawley); experiment: blood glucose depression and serum insulin profiles after subcutaneous injection; type: in vivo, rat
Experimental: Subcutaneous injections of insulin-polymer conjugates or insulin controls are administered at a dose between 1 and 10 equivalent U insulin/kg body weight behind the neck of fasted normal […] rats (Male Sprague-Dawley, 200-250 g, n=2-4). Blood samples are collected via tail vein bleeding at −15 and 0 minutes, and at 15, 30, 45, 60, 90, 120, 180, 240, 300 and 360 minutes after injection. Blood glucose values are measured using commercially available test strips (Precision Xtra, Abbott Laboratories, Abbott Park, Ill.). The remaining blood is centrifuged to obtain serum and stored in a freezer until measured for serum insulin levels. Serum insulin is measured using an ELISA kit (ALPCO Diagnostics, Windham, N.H.). Pharmacodynamic (PD) parameters such as time to reach minimum blood glucose concentration (Tnadir) and duration over which the blood glucose level remains below 70% of initial value (T70% BGL), are determined according to published methods for subcutaneous delivery. Pharmacokinetic (PK) parameters such as time to reach maximum serum insulin concentration (Tmax), mean insulin residence time (MRT), and mean insulin absorption time (MAT), are determined according to published methods for subcutaneous delivery using commercially available ELISA assays (ALPCO Diagnostics, Windham, N.H.). The blood glucose depression curve and corresponding serum insulin profile for each formulation may then be compared to those obtained for an insulin control to determine any differences in the timing and extent of the insulin action.
The in vivo digestion behavior of the insulin-glycogen conjugate was assessed via subcutaneous injection (alone without a glucose-binding molecule such as Con A) into normal male SD rats.
Subcutaneous injections of insulin-dextran were administered using 0.25 ml of a sterilized 1×PBS solution (0.88 equivalent mg insulin/[…]) behind the neck of two fasted normal rat groups (Male Sprague-Dawley, 200-250 g, n=4). Measurements of glucose and insulin values from tail vein blood samples were performed at −15 and 0 minutes, and at 15, 30, 45, 60, 90, 120, 180, 240, 300 and 360 minutes after injection.

[2] = tested on: normal and STZ-diabetic rats; experiment: disappearance of fluorescently labeled gel components from the injection site; type: in vivo, rat; conditions: gel injected under the skin
Source text: The inventive gel of Example 21, has viscosity characteristics that allow easy loading and injection through a standard 27½G insulin syringe obviating the need for invasive surgery. […] This is necessary to avoid unwanted material accumulation after repeated daily dosing. To illustrate this point, gels were synthesized from (i) fluorescently-labeled insulin-glycogen conjugate (FITC-conjugate)/unlabeled Con A and (ii) unlabeled insulin-glycogen conjugate/fluorescently-labeled Con A (FITC-Con A) in the presence of India ink (SpeedBall® Superblack) and injected under the skin of both normal and STZ-diabetic rats on Days 2, 1, and 0 in order to simultaneously observe the injection site post-mortem and monitor the rate of disappearance of each of the components by fluorescence imaging.
Taken together, not only is the insulin-glycogen conjugate removed completely from the injection site, its rate of disappearance is dependent on the glycemic state of the animal (i.e. hyperglycemia leads to more rapid elimination of material from the site).

non-diabetic felines = experiment: euglycemic clamp protocol in non-diabetic felines; type: in vivo, feline; conditions: 0.5 U/kg conjugate (FIG. 6)
[3] = FIG. 4b, s.c. 2.5 U of conjugated insulin/kg, male SD rats
[4] = s.c. injection alone, normal male SD rats
[5] = s.c. 0.25 ml, fasted normal male SD rats

insulin-glycogen conjugate: human recombinant insulin covalently linked to glycogen by CNBr or CDAP coupling; glycogen source differs between examples
degradation by amylases (human salivary amylase): rapidly degraded by amylases in vitro and in vivo
T70% BGL [1, 3]: ~150 min
Tnadir (blood glucose) [1, 3]: 30 to 45 min
time to reach glucose nadir (Tnadir) [1, 4]: 30 to 45 min
time to return to within 70% of fasting glucose levels (T70% BGL) [1, 4]: less than 180 minutes
speed of insulin action compared with unconjugated insulin ([1]; s.c., normal male SD rats): acts just as rapidly as unconjugated insulin in vivo
elimination from the injection site (fluorescence imaging) ([2]; STZ-diabetic rats): completely eliminated from the injection site in STZ-diabetic rats both one and two days after injection
elimination from the injection site (fluorescence imaging) ([2]; normal rats): still remained at the injection site after one day
conjugate bioactivity in euglycemic clamp (non-diabetic felines): confirmed the conjugate bioactivity

insulin-dextran: human recombinant insulin coupled to dextran (MW=70K) by CNBr; comparative conjugate [reference compound]
time serum glucose levels remain depressed post injection [1, 5]: at least five
time to reach the glucose nadir (Tnadir) [1, 5]: about 3 h
time to return to within 70% of fasting glucose levels (T70% BGL) [1, 5]: greater than 2.5 hours
